Assays:
[1] = target: T1, BRD4 bromo domain 1 [BRD4(1)] (Homo sapiens, UniProt O60885); experiment: BRD4(1)/acetylated peptide H4 binding assay (TR-FRET); conditions: inhibition of interaction between His6-tagged BRD4(1) (amino acids 67-152) and acetylated histone H4 peptide
T1 construct: N-terminally His6-tagged BRD4(1) (amino acids 67-152); made in house; host or cells: E. coli
How it was run: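 TR-FRET measured displacement of a biotinylated tetra-acetylated H4 peptide from His6-BRD4(1) (aa 67-152, E. coli-expressed, typically 10 nM) in HEPES pH 7.5 buffer. Compounds were tested at 11 concentrations (0.1 nM–20 μM), with 10 min preincubation, then 1 h at 22 °C and ≥3 h at 4 °C. The 665/620 nm ratio gave IC50 by 4-parameter fit.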

[2] = target: T2, BRD4 bromo domain 2 [BRD4(2)] (Homo sapiens, UniProt O60885); experiment: BRD4(2)/acetylated peptide H4 binding assay (TR-FRET); conditions: inhibition of interaction between His6-tagged BRD4(2) (amino acids 357-445) and acetylated histone H4 peptide
T2 construct: N-terminally His6-tagged BRD4(2) (amino acids 357-445); made in house; host or cells: E. coli
How it was run: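 TR-FRET displacement of biotinylated tetra-acetylated H4 peptide from His6-BRD4(2) (aa 357-445, E. coli-expressed), 100 nM final, in HEPES pH 7.5 buffer; 11 compound concentrations 0.1 nM-20 μM, 10 min preincubation, then 1 h 22 °C plus ≥3 h 4 °C. 665/620 ratio read; IC50 by 4-parameter fit.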

MOLM-13 cell line = experiment: MOLM-13 cell proliferation assay (alamarBlue); type: cell-based; conditions: Homo sapiens, inhibition of proliferation of MOLM-13 cells (acute myeloid leukaemia), 96 hours incubation
Method: In accordance with the invention, the substances were tested for their ability to inhibit the proliferation of the MOLM-13 cell linie (Deutsche Sammlung für Mikroorganismen und Zellkulturen [German Collection of Microorganisms and Cell Cultures], ACC 554; acute myeloid leukaemia). Cell viability was determined by means of the alamarBlue® reagent (Invitrogen) in a Victor X3 Multilabel Reader (Perkin Elmer). The excitation wavelength was 530 nm and the emission wavelength […].
The MOLM-13 cells were sown at a density of 4000 cells/well in 100 μl of growth medium on 96-well microtitre plates. After overnight incubation at 37° C., the fluorescence values were determined (CI values). The plates were then treated with various substance dilutions and incubated at 37° C. for 96 hours. Subsequently, the fluorescence values were determined (CO values). For the data analysis, the CI values were subtracted from the CO values and the results were compared between cells which had been treated with various dilutions of the substance or only with buffer solution. The IC50 values (substance concentration needed for 50% inhibition of cell proliferation) were calculated therefrom.

In the case of `COc1cc(C(=O)NC2CCN(C)CC2)ccc1Nc1ccc2c(n1)N(C1CCCC1)[C@H](C)C(=O)N2C` [Example 1, 4-{[(3R)-4-Cyclopentyl-1,3-dimethyl-2-oxo-1,2,3,4-tetrahydropyrido[2,3-b]pyrazin-6-yl]amino}-3-methoxy-N-(1-methylpiperidin-4-yl)benzamide], the IC50 [1] is reported as 260 nM, the IC50 [2] is reported as 138 nM and the IC50 (MOLM-13 cell line) is reported as 176 nM.

`COc1cc(C(=O)NC2CCN(C)CC2)ccc1Nc1ccc2c(n1)N(C(C)C)[C@H](C)C(=O)N2C` [Example 2, 4-{[(3R)-1,3-Dimethyl-2-oxo-4-(propan-2-yl)-1,2,3,4-tetrahydropyrido[2,3-b]pyrazin-6-yl]amino}-3-methoxy-N-(1-methylpiperidin-4-yl)benzamide] was tested, and the IC50 [1] was 501 nM, the IC50 [2] was 622 nM and the IC50 (MOLM-13 cell line) was 2360 nM.

With `COc1cc(C(=O)NCCN2CCOCC2)ccc1Nc1ccc2c(n1)N(C(C)C)[C@H](C)C(=O)N2C` [Example 3, 4-{[(3R)-1,3-Dimethyl-2-oxo-4-(propan-2-yl)-1,2,3,4-tetrahydropyrido[2,3-b]pyrazin-6-yl]amino}-3-methoxy-N-[2-(morpholin-4-yl)ethyl]benzamide] the IC50 [1] was 131 nM, the IC50 [2] was 472 nM and the IC50 (MOLM-13 cell line) was 630 nM.

`COc1cc(C(=O)NCCN2CCN(C(=O)OC(C)(C)C)CC2)ccc1Nc1ccc2c(n1)N(C(C)C)[C@H](C)C(=O)N2C` [Example 4, 1-tert-Butyl 4-{2-[(4-{[(3R)-1,3-dimethyl-2-oxo-4-(propan-2-yl)-1,2,3,4-tetrahydropyrido[2,3-b]pyrazin-6-yl]amino}-3-methoxybenzoyl)amino]ethyl}piperazinecarboxylate] was tested, and the IC50 [1] was 374 nM, the IC50 [2] was 234 nM and the IC50 (MOLM-13 cell line) was 1110 nM.

`COc1cc(C(=O)NCCN(C)C)ccc1Nc1ccc2c(n1)N(C(C)C)[C@H](C)C(=O)N2C` [Example 5, N-[2-(Dimethylamino)ethyl]-4-{[(3R)-1,3-dimethyl-2-oxo-4-(propan-2-yl)-1,2,3,4-tetrahydropyrido[2,3-b]pyrazin-6-yl]amino}-3-methoxybenzamide] gave an IC50 [1] of 93 nM and an IC50 (MOLM-13 cell line) of 503 nM.

Work on `COc1cc(C(=O)NC2CCCC2)ccc1Nc1ccc2c(n1)N(C(C)C)[C@H](C)C(=O)N2C` [Example 6, N-Cyclopentyl-4-{[(3R)-1,3-dimethyl-2-oxo-4-(propan-2-yl)-1,2,3,4-tetrahydropyrido[2,3-b]pyrazin-6-yl]amino}-3-methoxybenzamide] yielded an IC50 [1] of 255 nM and an IC50 (MOLM-13 cell line) of 762 nM.

In the case of `C[C@@H]1C(=O)N(C)c2ccc(Nc3ccc(C(=O)N4CC5(CCS5(=O)=O)C4)cc3)nc2N1C1CCCC1` [Example 7, (3R)-4-Cyclopentyl-6-({4-[(1,1-dioxido-1-thia-6-azaspiro[3.3]hept-6-yl)carbonyl]phenyl}amino)-1,3-dimethyl-3,4-dihydropyrido[2,3-b]pyrazin-2(1H)-one], the IC50 [1] is reported as 91 nM and the IC50 (MOLM-13 cell line) is reported as 377 nM.

`COc1cc(C(=O)N2CC3(CCS3(=O)=O)C2)ccc1Nc1ccc2c(n1)N(C(C)C)[C@H](C)C(=O)N2C` [Example 8, (3R)-6-({4-[(1,1-Dioxido-1-thia-6-azaspiro[3.3]hept-6-yl)carbonyl]-2-methoxyphenyl}amino)-4-isopropyl-1,3-dimethyl-3,4-dihydropyrido[2,3-b]pyrazin-2(1H)-one] was tested, and the IC50 [1] was 141 nM, the IC50 [2] was 83 nM and the IC50 (MOLM-13 cell line) was 362 nM.

`COc1cc(C(=O)NCCN(C)C)ccc1Nc1ccc2c(n1)N(C1CCOCC1)[C@H](C)C(=O)N2C` [Example 46, N-[2-(Dimethyalmino)ethyl]-4-{[(3R)-1,3-dimethyl-2-oxo-4-(tetrahydro-2H-pyran-4-yl)-1,2,3,4-tetrahydropyrido[2,3-b]pyrazin-6-yl]amino}-3-methoxybenzamide] was tested, and the IC50 [1] was 52 nM and the IC50 (MOLM-13 cell line) was 461 nM.

`CC(C)N1c2nc(Nc3ccc(C(=O)N[C@H]4CC[C@H](N5CCN(CC6CC6)CC5)CC4)cc3)ccc2N(C)C(=O)[C@H]1C` [Example 96, N-{trans-4-[4-(Cyclopropylmethyl)piperazin-1-yl]cyclohexyl}-4-{[(3R)-1,3-dimethyl-2-oxo-4-(propan-2-yl)-1,2,3,4-tetrahydropyrido[2,3-b]pyrazin-6-yl]amino}benzamide] showed an IC50 [1] of 438 nM and an IC50 [2] of 344 nM.

`COc1cc(C(=O)NC2CCC(O)CC2)ccc1Nc1ccc2c(n1)N(C(C)C)[C@H](C)C(=O)N2C` (stereo partly drawn) [Example 97, 4-{[(3R)-1,3-Dimethyl-2-oxo-4-(propan-2-yl)-1,2,3,4-tetrahydropyrido[2,3-b]pyrazin-6-yl]amino}-N-(4-hydroxycyclohexyl)-3-methoxybenzamide] showed an IC50 [1] of 261 nM and an IC50 [2] of 117 nM.

`CC(C)N1c2nc(Nc3ccc(C(=O)NC4CCN(C)CC4)cc3)ccc2N(C)C(=O)[C@H]1C` [Example 98, 4-{[(3R)-1,3-Dimethyl-2-oxo-4-(propan-2-yl)-1,2,3,4-tetrahydropyrido[2,3-b]pyrazin-6-yl]amino}-N-(1-methylpiperidin-4-yl)benzamide] was tested, and the IC50 [1] was 281 nM and the IC50 [2] was 98 nM.

For `COCCN1c2nc(Nc3ccc(C(=O)NC4CCN(C)CC4)cc3)ccc2N(C)C(=O)C1C` (stereo not drawn) [Example 104, 4-{[4-(2-Methoxyethyl)-1,3-dimethyl-2-oxo-1,2,3,4-tetrahydropyrido[2,3-b]pyrazin-6-yl]amino}-N-(1-methylpiperidin-4-yl)benzamide], the IC50 [1] was 621 nM and the IC50 [2] was 217 nM.

`COCCN1c2nc(Nc3ccc(C(=O)N[C@H]4CC[C@H](N5CCN(CC6CC6)CC5)CC4)cc3)ccc2N(C)C(=O)C1C` (stereo partly drawn) [Example 105, N-{trans-4-[4-(Cyclopropylmethyl)piperazin-1-yl]cyclohexyl}-4-{[4-(2-methoxyethyl)-1,3-dimethyl-2-oxo-1,2,3,4-tetrahydropyrido[2,3-b]pyrazin-6-yl]amino}benzamide] gave an IC50 [1] of 452 nM and an IC50 [2] of 187 nM.

`C[C@@H]1C(=O)N(C)c2ccc(Nc3ccc(S(=O)(=O)N(C)C)cc3)nc2N1C1CCN(C(=O)OC(C)(C)C)CC1` [Example 106, tert-Butyl 4-[(3R)-6-{[4-(dimethylsulphamoyl)phenyl]amino}-1,3-dimethyl-2-oxo-2,3-dihydropyrido[2,3-b]pyrazin-4(1H)-yl]piperidine-1-carbonate] was tested, and the IC50 [1] was 632 nM and the IC50 [2] was 463 nM.

`C[C@@H]1C(=O)N(C)c2ccc(Nc3ccc(S(=O)(=O)NC4CCN(C)CC4)cc3)nc2N1c1ccccc1` [Example 108, 4-{[(3R)-1,3-Dimethyl-2-oxo-4-phenyl-1,2,3,4-tetrahydropyrido[2,3-b]pyrazin-6-yl]amino}-N-(1-methylpiperidin-4-yl)benzenesulphonamide] was tested, and the IC50 [1] was 63 nM and the IC50 [2] was 239 nM.

`C[C@@H]1C(=O)N(C)c2ccc(Nc3ccc(S(=O)(=O)N[C@H]4CC[C@H](N5CCN(CC6CC6)CC5)CC4)cc3)nc2N1Cc1ccccc1` [Example 109, 4-{[(3R)-4-Benzyl-1,3-dimethyl-2-oxo-1,2,3,4-tetrahydropyrido[2,3-b]pyrazin-6-yl]amino}-N-{trans-4-[4-(cyclopropylmethyl)piperazin-1-yl]cyclohexyl}benzenesulphonamide] was tested, and the IC50 [1] was 36 nM and the IC50 [2] was 78 nM.

`COc1cc(S(=O)(=O)NC2CCN(C)CC2)ccc1Nc1ccc2c(n1)N(C1CCOCC1)[C@H](C)C(=O)N2C` [Example 110, 4-{[(3R)-1,3-Dimethyl-2-oxo-4-(tetrahydro-2H-pyran-4-yl)-1,2,3,4-tetrahydropyrido[2,3-b]pyrazin-6-yl]amino}-3-methoxy-N-(1-methylpiperidin-4-yl)benzenesulphonamide] gave an IC50 [1] of 38 nM and an IC50 [2] of 55 nM.

`COc1cc(S(=O)(=O)N[C@H]2CC[C@H](N3CCN(CC4CC4)CC3)CC2)ccc1Nc1ccc2c(n1)N(C1CCOCC1)[C@H](C)C(=O)N2C` [Example 111, N-{trans-4-[4-(Cyclopropylmethyl)piperazin-1-yl]cyclohexyl}-4-{[(3R)-1,3-dimethyl-2-oxo-4-(tetrahydro-2H-pyran-4-yl)-1,2,3,4-tetrahydropyrido[2,3-b]pyrazin-6-yl]amino}-3-methoxybenzenesulphonamide] was tested, and the IC50 [1] was 29 nM and the IC50 [2] was 130 nM.

`COc1cc(S(=O)(=O)N2CCN(C)CC2)ccc1Nc1ccc2c(n1)N(C1CCOCC1)[C@H](C)C(=O)N2C` [Example 112, (3R)-6-({2-Methoxy-4-[(4-methylpiperazin-1-yl)sulphonyl]phenyl}amino)-1,3-dimethyl-4-(tetrahydro-2H-pyran-4-yl)-3,4-dihydropyrido[2,3-b]pyrazin-2(1H)-one] gave an IC50 [1] of 106 nM and an IC50 [2] of 86 nM.

Source: patent US20160193206A1, “BET-PROTEIN-INHIBITING DIHYDROPYRIDOPYRAZINONES” (BAYER PHARMA AKTIENGESELLSCHAFT, priority 2012, published 2016)
